Molecules are shown by their SMILES.

For assay [1], the target named is T1, Adrenergic receptor alpha-1 (Rattus norvegicus, UniProt P15823+P23944+P43140).
T1 sequence (P15823 whole entry): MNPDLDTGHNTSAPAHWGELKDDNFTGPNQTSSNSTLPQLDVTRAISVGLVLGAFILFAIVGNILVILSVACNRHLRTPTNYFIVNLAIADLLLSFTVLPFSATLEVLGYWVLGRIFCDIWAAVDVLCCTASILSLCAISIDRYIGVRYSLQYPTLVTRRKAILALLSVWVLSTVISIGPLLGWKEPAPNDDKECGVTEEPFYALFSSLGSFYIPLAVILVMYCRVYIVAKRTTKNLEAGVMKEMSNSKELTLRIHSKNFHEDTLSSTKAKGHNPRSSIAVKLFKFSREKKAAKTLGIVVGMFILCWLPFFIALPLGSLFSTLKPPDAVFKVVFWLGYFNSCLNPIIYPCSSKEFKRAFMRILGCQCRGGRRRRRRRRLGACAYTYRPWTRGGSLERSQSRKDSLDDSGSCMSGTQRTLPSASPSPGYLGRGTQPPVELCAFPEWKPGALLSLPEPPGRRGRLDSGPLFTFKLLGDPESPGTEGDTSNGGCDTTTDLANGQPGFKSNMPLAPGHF
T1 sequence (P23944 whole entry): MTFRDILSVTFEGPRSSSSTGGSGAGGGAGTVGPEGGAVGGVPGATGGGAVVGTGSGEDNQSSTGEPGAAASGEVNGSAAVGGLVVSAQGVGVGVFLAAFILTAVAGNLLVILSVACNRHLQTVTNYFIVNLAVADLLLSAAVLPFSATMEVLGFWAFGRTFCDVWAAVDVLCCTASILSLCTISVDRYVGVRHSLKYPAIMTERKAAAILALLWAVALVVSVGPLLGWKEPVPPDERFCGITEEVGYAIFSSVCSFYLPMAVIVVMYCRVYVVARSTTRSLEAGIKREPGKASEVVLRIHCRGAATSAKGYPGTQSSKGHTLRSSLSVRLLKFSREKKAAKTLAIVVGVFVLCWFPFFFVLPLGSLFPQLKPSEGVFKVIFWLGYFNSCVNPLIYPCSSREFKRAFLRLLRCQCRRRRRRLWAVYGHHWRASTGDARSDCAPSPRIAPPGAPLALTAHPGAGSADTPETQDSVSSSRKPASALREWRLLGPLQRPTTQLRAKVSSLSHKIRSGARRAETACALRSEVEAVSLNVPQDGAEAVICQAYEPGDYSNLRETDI
T1 sequence (P43140 whole entry): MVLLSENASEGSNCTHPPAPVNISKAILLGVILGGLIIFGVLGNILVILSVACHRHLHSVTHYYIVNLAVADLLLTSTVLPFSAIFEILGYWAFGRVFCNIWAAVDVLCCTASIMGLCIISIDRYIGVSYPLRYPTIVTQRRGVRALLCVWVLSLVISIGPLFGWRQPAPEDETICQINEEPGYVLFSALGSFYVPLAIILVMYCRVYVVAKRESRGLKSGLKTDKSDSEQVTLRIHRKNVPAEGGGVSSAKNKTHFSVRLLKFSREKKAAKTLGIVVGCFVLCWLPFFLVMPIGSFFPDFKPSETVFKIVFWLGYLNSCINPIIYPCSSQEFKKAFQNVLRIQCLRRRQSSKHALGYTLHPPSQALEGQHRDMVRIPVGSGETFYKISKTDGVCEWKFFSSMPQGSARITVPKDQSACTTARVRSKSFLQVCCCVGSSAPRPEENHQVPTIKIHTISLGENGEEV
Briefly: In vitro antagonistic activity against alpha-1 adrenergic receptor in isolated unstimulated rat vas deferens (methoxamine-induced contractions).

Assay [2] addresses T2, Adrenergic receptor alpha-2 (Rattus norvegicus, UniProt P22086+P19328+P22909).
T2 sequence (P22086 whole entry): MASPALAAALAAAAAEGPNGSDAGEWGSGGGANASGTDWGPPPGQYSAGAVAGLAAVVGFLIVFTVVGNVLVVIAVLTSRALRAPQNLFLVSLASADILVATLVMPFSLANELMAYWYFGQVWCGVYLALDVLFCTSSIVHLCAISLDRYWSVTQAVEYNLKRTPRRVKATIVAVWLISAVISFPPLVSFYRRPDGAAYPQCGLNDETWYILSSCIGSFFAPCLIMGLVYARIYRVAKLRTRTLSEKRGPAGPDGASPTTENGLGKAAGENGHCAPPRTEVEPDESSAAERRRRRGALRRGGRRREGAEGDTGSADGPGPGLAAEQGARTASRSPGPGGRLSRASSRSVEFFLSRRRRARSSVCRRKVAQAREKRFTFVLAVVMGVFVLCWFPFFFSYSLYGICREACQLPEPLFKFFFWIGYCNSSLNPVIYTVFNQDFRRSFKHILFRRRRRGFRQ
T2 sequence (P19328 whole entry): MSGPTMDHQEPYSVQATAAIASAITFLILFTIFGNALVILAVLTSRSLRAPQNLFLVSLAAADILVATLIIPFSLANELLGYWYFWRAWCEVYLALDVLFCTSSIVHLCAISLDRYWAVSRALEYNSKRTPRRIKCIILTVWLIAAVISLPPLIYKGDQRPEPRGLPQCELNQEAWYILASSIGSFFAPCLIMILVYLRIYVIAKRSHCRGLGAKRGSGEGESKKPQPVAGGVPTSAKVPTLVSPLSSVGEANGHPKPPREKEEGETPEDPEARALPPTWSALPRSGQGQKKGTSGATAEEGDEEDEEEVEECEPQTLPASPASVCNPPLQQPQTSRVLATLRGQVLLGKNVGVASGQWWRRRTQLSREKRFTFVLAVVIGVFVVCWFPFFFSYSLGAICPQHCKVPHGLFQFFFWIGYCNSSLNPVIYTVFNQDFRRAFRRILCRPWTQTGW
T2 sequence (P22909 whole entry): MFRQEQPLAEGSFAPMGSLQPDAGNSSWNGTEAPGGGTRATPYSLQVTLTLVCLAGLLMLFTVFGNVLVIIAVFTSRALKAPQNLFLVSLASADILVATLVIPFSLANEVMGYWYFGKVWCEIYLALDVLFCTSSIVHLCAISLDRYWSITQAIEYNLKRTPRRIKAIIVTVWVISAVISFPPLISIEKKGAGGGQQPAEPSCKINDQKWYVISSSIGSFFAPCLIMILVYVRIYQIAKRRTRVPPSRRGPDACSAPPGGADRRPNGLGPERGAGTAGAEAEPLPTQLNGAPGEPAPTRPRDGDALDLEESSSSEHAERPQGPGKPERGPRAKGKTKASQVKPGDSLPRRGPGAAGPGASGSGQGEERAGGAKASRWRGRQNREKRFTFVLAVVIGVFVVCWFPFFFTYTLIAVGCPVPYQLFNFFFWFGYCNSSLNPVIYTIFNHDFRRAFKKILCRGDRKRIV
The assay is described as follows: (§1) In vitro antagonistic activity against alpha-2 adrenergic receptor in isolated electrically stimulated rat vas deferens (clonidine-induced decrease in twitch height). Type of assay: functional, tissue-based.

Assay [3] addresses T2, Adrenergic receptor alpha-2. The description is as §1. In kind it is functional, tissue-based. The source holds these as a separate data set.

One may read the pA2 as a measure of antagonist potency on a negative log scale. A high value points to a more potent antagonist. For the compound `CC1=C(CC2=NCCN2)CCc2ccccc21.Cl`, the pA2 in assay [1] stood at 7.08; in assay [2], 7.19; in assay [3], 7.19.
For `C1=C(CC2=NCCN2)CCc2ccccc21.Cl` [NAPAMEZOLE HYDROCHLORIDE], the pA2 in assay [1] turned out to be 6.87; in assay [2], 7.76; in assay [3], 7.76.
